Experimental data reported in patent US20130116203A1, “ISOTHIOCYNATES AND GLUCOSINOLATE COMPOUNDS AND ANTI-TUMOR COMPOSITIONS CONTAINING SAME” (priority 2011, published 2013).

Experiments:
Format in all cases: cell-based
[1] = system: eight human cancer cell lines; assay: Average cytotoxicity across the human cancer cell line panel
Description: (§1) Five serial 1:2 dilutions were made with anhydrous DMSO at 100× the final concentration used in the assay.

[2] = system: NCI/ADR RES (human breast carcinoma) cells; assay: Cell Titer-Glo cytotoxicity assay, NCI/ADR-RES
Description: as §1

[3] = system: NCI-H460 (human breast carcinoma) cells; assay: Cell Titer-Glo cytotoxicity assay, NCI-H460; conditions: inferred from racemate 13 vs 2
Description: as §1

[4] = system: MCF7 (human breast carcinoma) cells; assay: Cell Titer-Glo cytotoxicity assay, MCF7; conditions: inferred from racemate 13 vs 2
Description: as §1

`S=C=NCc1cccnc1` [Compound 22, 3-(isothiocyanatomethyl)pyridine] was tested. Which “increase in effectiveness relative to L-sulforaphane” value ([1]; potency in NCI/ADR RES and selectivity over NmuMG taken together) did it give?
The value was roughly 30 fold.

What about the “fold increase in potency over 23” value ([2]; NCI/ADR RES cells) of the same compound?
Its value is no more than 10 fold.

With `S=C=NCc1ccccc1` [Compound 23, 1-(isothiocyanatomethyl)benzene] as the compound, how does the “fold increase in potency over fully-saturated 18” value ([1]; average IC50 compared) read?
Its value is greater than 3 fold.

Which “% bioactive” value [3] does the source give for `C[S@+]([O-])CCCCN=C=S` [D-sulforaphane] here?
The value was 14%.

What about the “% bioactive” value [4] of the same compound?
Its value is 0%.

And the “% bioactive” value ([2]; NCI/ADR RES, inferred from racemate 13 vs 2)?
The value was 9%.
